Here are results for eight compounds from patent EP4574818A1, “ONIUM SALT OF NITROGEN-CONTAINING HETEROARYL COMPOUND AND PEST CONTROL AGENT” (priority 2022, dated 2024).

Type in all cases: in vivo
In one data set the test system is Spodoptera litura. Briefly: Efficacy test against Spodoptera litura (cabbage leaf immersion). The settings on record: 144 h, 125 ppm by mass, cabbage leaf immersed 30 seconds, second-instar larvae, 25°C, humidity 60%, after six days, read-out: mortality of Spodoptera litura. The method, then: A cabbage leaf was immersed in the diluted solution for 30 seconds. The cabbage leaf was air-dried and then put in a petri dish, followed by leaving five second-instar larvae of Spodoptera litura therein. The petri dish was placed in a thermostatic chamber at a temperature of 25°C and a humidity of 60%. After six days had passed from leaving the larvae, life or death was assessed and the mortality was calculated. The test was repeated twice.

For the next data set, the system named is Phyllotreta striolata. The data set is described as follows: Efficacy test against Phyllotreta striolata (sprayed bok-choy seedling). Particulars: 168 h, 125 ppm by mass, sprayed to bok-choy seedling, adults, 25°C, humidity 65%, after seven days, read-out: mortality against the adults of Phyllotreta striolata. The protocol:
(§1) 5 parts by mass of a compound of the present invention, 93.6 parts by mass of dimethylformamide, and 1.4 parts by mass of polyoxyethylene alkyl aryl ether were mixed and dissolved to obtain an emulsion (I) containing 5% by mass of the active ingredient.
The emulsion (I) was diluted with water such that the concentration of the compound of the present invention became 125 ppm by mass. The diluted solution was sprayed to a bok-choy seedling (at the 7th leafe stage) planted in a 3-sun pot. After air-dried, the bok-choy seedling was placed in a plastic cup, and ten adults of Phyllotreta striolata were left therein. The plastic cup was placed in a thermostatic chamber at a temperature of 25°C and a humidity of 65%. After seven days had passed from leaving the adults, life or death was assessed and the mortality was calculated. The test was repeated twice.

The subject of another data set is Plutella xylostella. The data set is described as follows: Efficacy test against Plutella xylostella (cabbage leaf immersion). The settings on record: 72 h; 125 ppm by mass; cabbage leaf immersed 30 seconds; second-instar larvae of Plutella xylostella; 25°C, humidity 60%; after three days; read-out: mortality. The method, then:
The emulsion (II) was diluted with water at the same dilution ratio as the diluted solution (I), thereby obtaining a diluted solution (II). A cabbage leaf was immersed in each of the diluted solutions for 30 seconds. Each cabbage leaf after immersion was air-dried and then put in a petri dish, followed by leaving five second-instar larvae of Plutella xylostella therein. The petri dishes were placed in a thermostatic chamber at a temperature of 25°C and a humidity of 60%. After three days had passed from leaving the larvae, life or death was assessed and the mortality was calculated. The test was repeated twice.

The test system of the next data set is Mythimna separata. The data set is described as follows: Efficacy test against Mythimna separata (treated artificial feed). Particulars: 1 µl of emulsion (I) (5% by mass active ingredient) mixed with 0.8 g artificial feed; second-instar larvae; 25°C; after five days. The method, then:
as §1
0.8 g of commercially-available artificial feed (Insect LFS, manufactured by Nosan Corporation) and 1 µl of the emulsion (I) were mixed well, and then 0.2 g of the mixture per treated area was packed into plastic test containers (each having a capacity of 1.4 ml) as test feeds.
Two second-instar larvae of Mythimna separata were left per treated area, and then the test containers were sealed with plastic covers. The test containers were placed in a thermostatic chamber at 25°C, and, after five days had passed therefrom, the mortality and the feed intake were measured. The test was repeated twice.
In addition, the test was carried out under the same conditions as described above, except that the emulsion (II) was used instead of the emulsion (I), and evaluated as a solvent control area.

Another data set concerns Ctenocephalides felis. Briefly: Efficacy test against Ctenocephalides felis (thin film in glass vial). Particulars: 96 h, 100 µL of 16 ppm by mass isopropanol solution dried as thin film in glass vial, adults, 25°C, after four days. The method, then: The compound of the present invention was dissolved in isopropanol to prepare a drug solution having a concentration of 16 ppm by mass. 100 µL of the drug solution was coated on the inner surface of the bottom of a glass vial container (φ […]), and then isopropanol was vaporized by air-drying to form a thin film of the compound of the present invention. In the vial container, four adults (a mixture of males and females) of cat flea (Ctenocephalides felis) were left. The lid was put on the vial container, and the vial container was placed in a thermostatic chamber at 25°C. After four days had passed from leaving the adults, life or death of Ctenocephalides felis was assessed and the mortality was calculated.

Data set [1] has as its system Haemophysalis longicornis. The data set is described as follows: Efficacy test against Haemophysalis longicornis (thin film in glass test tube). The settings on record: 100 µL of 16 ppm by mass isopropanol solution dried as thin film in glass test tube; nymphs; 25°C; after four days; 5760 min. The protocol:
The compound of the present invention was dissolved in isopropanol to prepare a drug solution having a concentration of 16 ppm by mass. 100 µL of the drug solution was coated on the inner surface of the bottom of a glass test tube (φ 12 mm), and then isopropanol was vaporized by air-drying to form a thin film of the compound of the present invention. In the test tube, four nymphs of Haemophysalis longicornis were left. The lid was put on the test tube, and the test tube was placed in a thermostatic chamber at 25°C. After four days had passed from leaving the nymphs, life or death of Haemophysalis longicornis was assessed and the mortality was calculated.

A value given as a limit tells only on which side of the number the result lay.

As for `O=C([N-][n+]1cccc(F)c1)c1cc(Cl)nc(Oc2ccc(OC(F)(F)F)cc2)c1` [Compound 1], the mortality at 125 ppm with Spodoptera litura, in the data set on Phyllotreta striolata and in the data set on Plutella xylostella was at least 80% each time. In addition, the “mortality of Mythimna separata or feed intake relative to the feed intake at the solvent control area” value in the data set with Mythimna separata was 100% mortality of Mythimna separata or 10% or less of the feed intake. The mortality at 16 ppm in the data set on Ctenocephalides felis was at least 80%.

As to `O=C([N-][n+]1ccccc1)c1cc(Cl)nc(Oc2ccc(OC(F)(F)C(F)(F)F)cc2)c1` [Compound 3], the mortality at 125 ppm in the data set on Spodoptera litura, with Phyllotreta striolata and in the data set with Plutella xylostella was at least 80% each time. In addition, the “mortality of Mythimna separata or feed intake relative to the feed intake at the solvent control area” value in the data set with Mythimna separata is reported as 100% mortality of Mythimna separata or 10% or less of the feed intake.

Turning to `O=C([N-][n+]1cccc(F)c1)c1cc(Cl)nc(Oc2ccc(OC(F)(F)C(F)(F)F)cc2)c1` [Compound 7], the mortality at 125 ppm in the data set on Spodoptera litura and with Plutella xylostella was at least 80% in each case. Moreover, in the data set on Ctenocephalides felis, the mortality at 16 ppm was at least 80%.

Take `CCn1c[n+]([N-]C(=O)c2cc(Cl)nc(Oc3ccc(OC(F)(F)C(F)(F)F)cc3)c2)cn1` [Compound 10]: the mortality at 125 ppm with Spodoptera litura, in the data set on Phyllotreta striolata and in the data set with Plutella xylostella was at least 80% each time. Moreover, the mortality at 16 ppm in the data set on Ctenocephalides felis was at least 80%.

Turning to `O=C([N-][n+]1ccccc1)c1cc(Cl)nc(Oc2ccc(OC(F)(F)F)cc2)c1` [Compound 175, (2-chloro-6-(4-(trifluoromethoxy)phenoxy)isonicotinoyl)(pyridin-1-ium-1-yl)amide], the mortality at 125 ppm in the data set on Spodoptera litura, in the data set with Phyllotreta striolata and in the data set with Plutella xylostella was at least 80% each time. The “mortality against Haemophysalis longicornis” value in data set [1] is at least 80%. The “mortality of Mythimna separata or feed intake relative to the feed intake at the solvent control area” value in the data set on Mythimna separata is reported as 100% mortality of Mythimna separata or 10% or less of the feed intake. Besides, the mortality at 16 ppm with Ctenocephalides felis is at least 80%.

As to `O=C([N-][n+]1ccccc1)c1cc(Cl)nc(Oc2ccc(C3CC3(Cl)Cl)cc2)c1` (stereo not drawn) [Compound 211], the mortality at 125 ppm with Phyllotreta striolata is at least 80%. The “mortality of Mythimna separata or feed intake relative to the feed intake at the solvent control area” value in the data set with Mythimna separata is given as 100% mortality of Mythimna separata or 10% or less of the feed intake.

Regarding `CCn1c[n+]([N-]C(=O)c2cc(I)nc(Oc3ccc(OC(F)(F)C(F)(F)F)cc3)c2)cn1` [Compound 218], the mortality at 125 ppm in the data set with Spodoptera litura, with Phyllotreta striolata and in the data set on Plutella xylostella was at least 80% throughout.

Regarding `O=C([N-][n+]1ccccc1)c1cc(I)nc(Oc2ccc(OC(F)(F)C(F)(F)F)cc2)c1` [Compound 219, (2-iodo-6-(4-(perfluoroethoxy)phenoxy)isonicotinoyl)(pyridin-1-ium-1-yl)amide], the mortality at 125 ppm with Spodoptera litura, in the data set with Phyllotreta striolata and in the data set with Plutella xylostella was at least 80% in each case.
